{"source": "paper PMC9150124", "about": "“Design of a Potent, Selective, and Brain-Penetrant Inhibitor of Wnt-Deactivating Enzyme Notum by Optimization of a Crystallographic Fragment Hit” (Journal of Medicinal Chemistry, 2022)", "key": {"[1]": {"target": "T1, human Notum (81–451 Cys330Ser) (Homo sapiens, UniProt Q6P988, C330S)", "T1 construct": "human Notum (81–451 Cys330Ser) as the enzyme; made in house", "T1 sequence (Q6P988 81-451 C330S)": "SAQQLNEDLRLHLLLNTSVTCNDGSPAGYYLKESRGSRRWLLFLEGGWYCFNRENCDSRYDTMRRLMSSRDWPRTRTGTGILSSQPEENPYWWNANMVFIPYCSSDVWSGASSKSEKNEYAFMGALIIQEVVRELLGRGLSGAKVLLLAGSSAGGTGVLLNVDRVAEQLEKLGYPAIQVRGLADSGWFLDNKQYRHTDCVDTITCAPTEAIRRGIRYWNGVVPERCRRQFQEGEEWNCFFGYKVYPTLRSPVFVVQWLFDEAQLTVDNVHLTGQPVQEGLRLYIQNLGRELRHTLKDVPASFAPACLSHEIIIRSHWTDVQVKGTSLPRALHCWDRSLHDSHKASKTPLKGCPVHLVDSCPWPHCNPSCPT", "assay": "Notum OPTS biochemical assay", "details": "OPTS substrate; mean; read-out: Notum IC50", "text": "The optimization of 6 to deliver this profile was directed at three principle areas of these hit structures: (1) aryl ring 7 (Table 1); (2) the C4 substituent on triazole 8 (Table 2); and (3) further fine-tuning of the triazole 9 (Table 3). […] This assay was used to establish SAR and to identify preferred leads for additional studies.\nMethods have been described in detail elsewhere.[23]−[26] Representative concentration–response curves are provided in the Supporting Information."}, "Notum": {"target": "T2, Notum (Homo sapiens, UniProt Q6P988)", "T2 sequence (Q6P988 20-496)": "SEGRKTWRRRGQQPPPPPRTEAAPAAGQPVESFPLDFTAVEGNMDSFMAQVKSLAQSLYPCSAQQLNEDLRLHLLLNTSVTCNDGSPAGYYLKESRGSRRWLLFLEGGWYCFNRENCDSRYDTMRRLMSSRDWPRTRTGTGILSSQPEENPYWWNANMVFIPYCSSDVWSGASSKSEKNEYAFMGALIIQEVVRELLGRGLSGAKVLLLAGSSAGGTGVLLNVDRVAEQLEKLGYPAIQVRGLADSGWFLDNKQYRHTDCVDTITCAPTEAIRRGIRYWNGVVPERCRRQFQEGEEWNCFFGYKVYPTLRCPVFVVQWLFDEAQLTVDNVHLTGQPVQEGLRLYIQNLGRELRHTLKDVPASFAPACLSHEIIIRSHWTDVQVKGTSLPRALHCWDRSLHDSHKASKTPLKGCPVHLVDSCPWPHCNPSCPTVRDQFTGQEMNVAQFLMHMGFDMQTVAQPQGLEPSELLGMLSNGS", "assay": "ABPP-TMT (FP-biotin) proteomic analysis in SW620 cells"}, "in vitro [2]": {"assay": "in vitro", "details": "dog"}, "P-gp (MDR1)": {"test_system": "P-gp (MDR1)", "assay": "in vitro", "details": "dog"}, "MDR1 (P-gp)": {"test_system": "MDR1 (P-gp)", "assay": "in vitro", "details": "dog"}, "[3]": {"assay": "Stability in mouse liver microsomes", "assay_type": "in vitro ADME", "design": "MLM Stability Cli mean: unit not given here"}, "[4]": {"assay": "Aqueous solubility in PBS (pH 7.4)", "assay_type": "physicochemical", "text": "Biosciences (Hyderabad, India) or WuXi AppTec (Shanghai, China).\nTable S1: Representative assay protocol"}, "in vitro [5]": {"assay": "in vitro", "details": "pH 7.4", "protocol": "G. Plasma protein binding (PPB):\nMethod: rapid equilibrium dialysis.\nTest System Mouse Plasma (K2EDTA)\nTest compound concentration 10 µM (mouse) or 2 µM (rat)"}, "[6]": {"details": "MDCK-MDR1, MDCK-MDR1 AB Papp, apical to basal"}, "[7]": {"details": "MDCK-MDR1, MDCK-MDR1 BA Papp, basal to apical"}}, "note": "“And” between values parts separate entries of the source, which are not always exact repeats. Equal entries are not always repeated. Structures can show the parent of a compound that is named as a salt.", "data": [{"smiles": "CCOc1ccc(-n2cc(CO)nn2)cc1", "note": "[7n, ((4-Ethoxyphenyl)-1H-1,2,3-triazol-4-yl)methanol]", "values": [{"measurement": "IC50", "setting": "[1]", "result": "78 ± 45", "unit": "µM"}]}, {"smiles": "OCc1cn(-c2cccc(F)c2)nn1", "note": "[7d, ((3-Fluorophenyl)-1H-1,2,3-triazol-4-yl)methanol]", "values": [{"measurement": "IC50", "setting": "[1]", "result": "25 ± 3", "unit": "µM"}]}, {"smiles": "NCc1cn(-c2ccc(Cl)c(C(F)(F)F)c2Cl)nn1", "note": "[8i, (1-(2,4-Dichloro-3-(trifluoromethyl)phenyl)-1H-1,2,3-triazol-4-yl)methanamine Hydrochloride]", "values": [{"measurement": "IC50", "setting": "[1]", "result": "0.91 ± 0.12", "unit": "µM"}, {"measurement": "NOTUM intensity normalised to DMSO", "setting": "Notum; SW620 conditioned media, 1e-8 M", "result": 1.002}, {"measurement": "NOTUM intensity normalised to DMSO", "setting": "Notum; SW620 conditioned media, 3e-8 M", "result": 0.8137}, {"measurement": "NOTUM intensity normalised to DMSO", "setting": "Notum; SW620 conditioned media, 1e-7 M", "result": 0.7326}, {"measurement": "NOTUM intensity normalised to DMSO", "setting": "Notum; SW620 conditioned media, 3e-7 M", "result": 0.3649}, {"measurement": "NOTUM intensity normalised to DMSO", "setting": "Notum; SW620 conditioned media, 1e-6 M", "result": 0.1945}, {"measurement": "NOTUM intensity normalised to DMSO", "setting": "Notum; SW620 conditioned media, 3e-6 M", "result": 0.1349}, {"measurement": "NOTUM intensity normalised to DMSO", "setting": "Notum; SW620 conditioned media, 1e-5 M", "result": 0.07262}, {"measurement": "NOTUM intensity normalised to DMSO", "setting": "Notum; SW620 lysate, 1e-8 M", "result": 1.016}, {"measurement": "NOTUM intensity normalised to DMSO", "setting": "Notum; SW620 lysate, 3e-8 M", "result": 0.7635}, {"measurement": "NOTUM intensity normalised to DMSO", "setting": "Notum; SW620 lysate, 1e-7 M", "result": 0.7415}, {"measurement": "NOTUM intensity normalised to DMSO", "setting": "Notum; SW620 lysate, 3e-7 M", "result": 0.5781}, {"measurement": "NOTUM intensity normalised to DMSO", "setting": "Notum; SW620 lysate, 1e-6 M", "result": 0.4746}, {"measurement": "NOTUM intensity normalised to DMSO", "setting": "Notum; SW620 lysate, 3e-6 M", "result": 0.3389}, {"measurement": "NOTUM intensity normalised to DMSO", "setting": "Notum; SW620 lysate, 1e-5 M", "result": 0.2883}]}, {"smiles": "FC(F)(F)c1c(Cl)cnc(-n2ccnn2)c1Cl", "note": "[9c, 3,5-Dichloro-2-(1H-1,2,3-triazol-1-yl)-4-(trifluoromethyl)pyridine]", "values": [{"measurement": "Papp", "setting": "in vitro [2]; [6]", "result": 2, "unit": "×10⁻⁶ cm/s"}, {"measurement": "Papp", "setting": "in vitro [2]; [7]", "result": 5, "unit": "×10⁻⁶ cm/s"}, {"measurement": "Papp", "setting": "P-gp (MDR1); [6]", "result": 1.74, "unit": "×10⁻⁶ cm/s"}, {"measurement": "Papp", "setting": "P-gp (MDR1); [7]", "result": 4.88, "unit": "×10⁻⁶ cm/s"}, {"measurement": "efflux ratio", "setting": "P-gp (MDR1); MDCK-MDR1, MDCK-MDR1 efflux ratio (ER)", "result": 2.81}, {"measurement": "recovery", "setting": "MDR1 (P-gp); MDCK-MDR1, MDR1-MDCKII A to B % Recovery", "result": 5.93, "unit": "%"}, {"measurement": "recovery", "setting": "MDR1 (P-gp); MDCK-MDR1, MDR1-MDCKII B to A % Recovery", "result": 65.2, "unit": "%"}, {"measurement": "IC50", "setting": "[1]", "result": "0.0075 ± 0.0016", "unit": "µM"}, {"measurement": "MLM Cli", "setting": "[3]", "result": "4.9/ND μL/min/mg protein"}, {"measurement": "MLM Stability Cli mean", "setting": "[3]; Table S4", "result": 4.94}, {"measurement": "half-life", "setting": "[3]; mouse, liver microsomes, Table S4, read-out: MLM Stability t1/2", "result": 2, "unit": "h"}, {"measurement": "solubility", "setting": "[4]; PBS pH 7.4, read-out: aq. solubility", "result": "400 µg/mL and 1400 µM"}, {"measurement": "solubility thermodynamic", "setting": "[4]; PBS, pH 7.4, n = 2, read-out: Thermodynamic Solubility @ RT, mean", "result": 399, "unit": "µg/mL"}]}, {"smiles": "OCc1cn(-c2ccccc2)nn1", "note": "[7a, (1-Phenyl-1H-1,2,3-triazol-4-yl)methanol]", "values": [{"measurement": "IC50", "setting": "[1]", "result": "110 ± 30", "unit": "µM"}]}, {"smiles": "OC1(Cc2cn(-c3ccc(Cl)c(C(F)(F)F)c3Cl)nn2)COC1", "note": "[8e, 3-((1-(2,4-Dichloro-3-(trifluoromethyl)phenyl)-1H-1,2,3-triazol-4-yl)methyl)oxetan-3-ol]", "values": [{"measurement": "IC50", "setting": "[1]", "result": "7.4 ± 1.1", "unit": "µM"}]}, {"smiles": "FC(F)(F)c1c(Cl)ccc(-n2cnnc2)c1Cl", "note": "[9a, 4-(2,4-Dichloro-3-(trifluoromethyl)phenyl)-4H-1,2,4-triazole]", "values": [{"measurement": "IC50", "setting": "[1]", "result": "1.3 ± 0.21", "unit": "µM"}]}, {"smiles": "CC(=O)CC(c1ccccc1)c1c(O)c2ccccc2oc1=O", "note": "(stereo not shown) [Warfarin, reference compound]", "values": [{"measurement": "recovery at 4 h, 2 µM", "setting": "in vitro [5]; SD, rat", "result": 100, "unit": "%"}, {"measurement": "fraction unbound at 4 h, 2 µM", "setting": "in vitro [5]; SD, rat, plasma", "result": 0.0063}, {"measurement": "recovery at 5 h, 10 µM", "setting": "in vitro [5]; mouse", "result": 103, "unit": "%"}, {"measurement": "Plasma protein binding (PPB), % bound", "setting": "in vitro [5]; mouse, plasma, 5 h, 10 µM", "result": 95.71, "unit": "%"}, {"measurement": "fraction unbound at 5 h, 10 µM", "setting": "in vitro [5]; mouse, plasma", "result": 0.0429}]}, {"smiles": "O=C(O)c1cn(-c2ccc(Cl)c(C(F)(F)F)c2Cl)nn1", "note": "[8f, 1-(2,4-Dichloro-3-(trifluoromethyl)phenyl)-1H-1,2,3-triazole-4-carboxylic Acid]", "values": [{"measurement": "IC50", "setting": "[1]", "result": "0.031 ± 0.01", "unit": "µM"}]}, {"smiles": "CCOc1cccc(-n2cc(CO)nn2)c1", "note": "[7i, ((3-Ethoxyphenyl)-1H-1,2,3-triazol-4-yl)methanol]", "values": [{"measurement": "IC50", "setting": "[1]", "result": "230 ± 20", "unit": "µM"}]}, {"smiles": "NC(=O)c1cn(-c2ccc(Cl)c(C(F)(F)F)c2Cl)nn1", "note": "[8g, 1-(2,4-Dichloro-3-(trifluoromethyl)phenyl)-1H-1,2,3-triazole-4-carboxamide]", "values": [{"measurement": "IC50", "setting": "[1]", "result": "1.2 ± 0.3", "unit": "µM"}]}, {"smiles": "Cc1ccc(-n2cc(CO)nn2)cc1", "note": "[7k, ((4-Methylphenyl)-1H-1,2,3-triazol-4-yl)methanol]", "values": [{"measurement": "IC50", "setting": "[1]", "result": "13 ± 2", "unit": "µM"}]}, {"smiles": "CC(O)c1cn(-c2ccc(Cl)c(C(F)(F)F)c2Cl)nn1", "note": "(stereo not shown) [8a, 1-(1-(2,4-Dichloro-3-(trifluoromethyl)phenyl)-1H-1,2,3-triazol-4-yl)ethan-1-ol]", "values": [{"measurement": "IC50", "setting": "[1]", "result": "1.8 ± 1", "unit": "µM"}]}]}
